What all share (type): in vivo
What all share (conditions): applied at 125 g/ha, evaluated after 13 days

Assay [1] has as its system Ipomoea hederacea (IPOHE). As to the kind of experiment: Post-emergence herbicidal glasshouse test (Table B1). In short, it runs like this: (§1)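 Damage is rated 13 days after treatment on a 1–5 scale (5 = 80–100%). Application, usually 500 g/h in acetone/water (50:50) with 0.5% Tween 20, is made one day post-sowing for pre-emergence or eight days for post-emergence; glasshouse at 24/16 °C, 14 h light, 65% humidity.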

Assay [2] deals with Echinochloa crus-galh (ECHCG). The assay is described as above. In short, it runs like this:
as §1

The test system of assay [3] is Abutilon theophrasti (ABUTH). The assay is described as above. In short, it runs like this:
as §1

Assay [4] concerns Setaria faberi (SETFA). The assay is described as above. The method in brief:
as §1

For assay [5], the system named is Amaranthus retoflexus (AMARE). The description is as above. The method in brief:
as §1

In assay [6] the test system is Ipomoea hederacea (IPOHE). The assay can be described thus: Pre-emergence herbicidal glasshouse test (Table B1). In short, it runs like this: as §1
Assay [7] concerns Echinochloa crus-galh (ECHCG). The assay is described as above. The method in brief:
as §1

Assay [8] concerns Abutilon theophrasti (ABUTH). Described as above. In short, it runs like this: as §1
The test system of assay [9] is Setaria faberi (SETFA). The assay is described as above. The method in brief:
as §1

The subject of assay [10] is Amaranthus retoflexus (AMARE). The description is as above. The method in brief:
as §1

The results in this text go back to US20230219904A1 (SYNGENTA CROP PROTECTION AG, priority 2020, published 2023).

On to `Cn1nnnc1NC(=O)c1ccc(OC(F)F)c(NC(=O)c2ccc(C(F)(F)F)cn2)c1Cl` [Compound 1.084], for which the “POST Application IPOHE, percentage damage on five-point scale” value in assay [1] is 3 (3=40-59%). In [2], the “POST Application ECHCG, percentage damage on five-point scale” value is 3 (3=40-59%). For the same molecule, the “POST Application ABUTH, percentage damage on five-point scale” value in assay [3] was 5 (5=80-100%). Moreover, the “POST Application SETFA, percentage damage on five-point scale” value in [4] is given as 3 (3=40-59%). In addition, in assay [5], the “POST Application AMARE, percentage damage on five-point scale” value is recorded as 4 (4=60-79%). Further, the “PRE Application IPOHE, percentage damage on five-point scale” value (shortened to “PRE Application IPOHE, percentage damage”) in assay [6] was 1 (1=0-19%). Moreover, the “PRE Application ECHCG, percentage damage on five-point scale” value (shortened to “PRE Application ECHCG, percentage damage”) in assay [7] is listed as 1 (1=0-19%). In assay [8], the “PRE Application ABUTH, percentage damage on five-point scale” value (shortened to “PRE Application ABUTH, percentage damage”) is given as 4 (4=60-79%). Moreover, the “PRE Application SETFA, percentage damage on five-point scale” value (shortened to “PRE Application SETFA, percentage damage”) in assay [9] is listed as 1 (1=0-19%). In addition, in assay [10], the “PRE Application AMARE, percentage damage on five-point scale” value (shortened to “PRE Application AMARE, percentage damage”) is given as 5 (5=80-100%).
With `CC(C)C(=O)Nc1c(OC(F)F)ccc(C(=O)Nc2nnnn2C)c1Cl` [Compound 1.020], the “POST Application IPOHE, percentage damage on five-point scale” value in assay [1] was 5 (5=80-100%). Besides, the “POST Application ECHCG, percentage damage on five-point scale” value in [2] is recorded as 5 (5=80-100%). Further, in assay [3], the “POST Application ABUTH, percentage damage on five-point scale” value is reported as 5 (5=80-100%). Further, the “POST Application SETFA, percentage damage on five-point scale” value in [4] is on record as 5 (5=80-100%). Besides, the “POST Application AMARE, percentage damage on five-point scale” value in assay [5] was 5 (5=80-100%). Moreover, the “PRE Application IPOHE, percentage damage” value in assay [6] was 5 (5=80-100%). Also, the “PRE Application ECHCG, percentage damage” value in assay [7] was 5 (5=80-100%). Further, the “PRE Application ABUTH, percentage damage” value in assay [8] is on record as 5 (5=80-100%). For the same molecule, the “PRE Application SETFA, percentage damage” value in [9] is reported as 5 (5=80-100%). Further, the “PRE Application AMARE, percentage damage” value in assay [10] is recorded as 5 (5=80-100%).
For the molecule `CN(C(=O)CC1CC1)c1c(OC(F)F)ccc(C(=O)Nc2nnnn2C)c1Cl` [Compound 1.037], the “POST Application IPOHE, percentage damage on five-point scale” value in assay [1] was 4 (4=60-79%). In assay [2], the “POST Application ECHCG, percentage damage on five-point scale” value was 5 (5=80-100%). Besides, the “POST Application ABUTH, percentage damage on five-point scale” value in assay [3] is listed as 5 (5=80-100%). The “POST Application SETFA, percentage damage on five-point scale” value in assay [4] was 5 (5=80-100%). For the same molecule, the “POST Application AMARE, percentage damage on five-point scale” value in assay [5] is 5 (5=80-100%). For the same molecule, in assay [6], the “PRE Application IPOHE, percentage damage” value is recorded as 4 (4=60-79%). Also, the “PRE Application ECHCG, percentage damage” value in assay [7] was 5 (5=80-100%). Besides, in assay [8], the “PRE Application ABUTH, percentage damage” value is on record as 5 (5=80-100%). Further, the “PRE Application SETFA, percentage damage” value in [9] is 4 (4=60-79%). In addition, the “PRE Application AMARE, percentage damage” value in assay [10] is recorded as 5 (5=80-100%).
As for `CCC(=O)Nc1c(OC(F)F)ccc(C(=O)Nc2nnnn2C)c1Cl` [Compound 1.022], in [1], the “POST Application IPOHE, percentage damage on five-point scale” value is 4 (4=60-79%). Further, the “POST Application ECHCG, percentage damage on five-point scale” value in [2] is 5 (5=80-100%). In [3], the “POST Application ABUTH, percentage damage on five-point scale” value is given as 5 (5=80-100%). Also, the “POST Application SETFA, percentage damage on five-point scale” value in [4] is reported as 5 (5=80-100%). Besides, in [5], the “POST Application AMARE, percentage damage on five-point scale” value is 5 (5=80-100%). Besides, in [6], the “PRE Application IPOHE, percentage damage” value was 4 (4=60-79%). In [7], the “PRE Application ECHCG, percentage damage” value is given as 5 (5=80-100%). Moreover, in assay [8], the “PRE Application ABUTH, percentage damage” value was 5 (5=80-100%). Also, the “PRE Application SETFA, percentage damage” value in assay [9] is given as 5 (5=80-100%). Further, in assay [10], the “PRE Application AMARE, percentage damage” value is recorded as 5 (5=80-100%).
In the case of `CC(F)C(=O)Nc1c(OC(F)F)ccc(C(=O)Nc2nnnn2C)c1Cl` (stereo not drawn) [Compound 1.025], in [1], the “POST Application IPOHE, percentage damage on five-point scale” value is recorded as 2 (2=20-39%). In addition, the “POST Application ECHCG, percentage damage on five-point scale” value in assay [2] is 5 (5=80-100%). Further, in [3], the “POST Application ABUTH, percentage damage on five-point scale” value was 4 (4=60-79%). Besides, the “POST Application SETFA, percentage damage on five-point scale” value in assay [4] is on record as 4 (4=60-79%). For the same molecule, in assay [5], the “POST Application AMARE, percentage damage on five-point scale” value is listed as 5 (5=80-100%). Further, in assay [6], the “PRE Application IPOHE, percentage damage” value is given as 4 (4=60-79%). Besides, in assay [7], the “PRE Application ECHCG, percentage damage” value is 3 (3=40-59%). The “PRE Application ABUTH, percentage damage” value in assay [8] is recorded as 5 (5=80-100%). Further, the “PRE Application SETFA, percentage damage” value in [9] is reported as 3 (3=40-59%). For the same molecule, the “PRE Application AMARE, percentage damage” value in assay [10] was 5 (5=80-100%).
Regarding `Cn1nnnc1NC(=O)c1ccc(OC(F)F)c(NC(=O)C2CC2(F)F)c1Cl` (stereo not drawn) [Compound 1.035], the “POST Application IPOHE, percentage damage on five-point scale” value in assay [1] was 4 (4=60-79%). Besides, the “POST Application ECHCG, percentage damage on five-point scale” value in [2] was 4 (4=60-79%). In addition, the “POST Application ABUTH, percentage damage on five-point scale” value in assay [3] was 4 (4=60-79%). The “POST Application SETFA, percentage damage on five-point scale” value in assay [4] is recorded as 4 (4=60-79%). The “POST Application AMARE, percentage damage on five-point scale” value in assay [5] is recorded as 4 (4=60-79%). In assay [6], the “PRE Application IPOHE, percentage damage” value is given as 3 (3=40-59%). Further, in assay [7], the “PRE Application ECHCG, percentage damage” value is given as 3 (3=40-59%). For the same molecule, the “PRE Application ABUTH, percentage damage” value in [8] was 5 (5=80-100%). In addition, in assay [9], the “PRE Application SETFA, percentage damage” value is recorded as 4 (4=60-79%). Moreover, the “PRE Application AMARE, percentage damage” value in assay [10] is on record as 5 (5=80-100%).
